From patent US5294605A, “Amphiphilic peptide compositions and analogues thereof” (The Scripps Research Institute, priority 1991, dated 1994)
Like-named read-outs stand apart in the source and are kept apart here. Square brackets hold non-standard residues; d marks the D form. Ends that are not written are not given here. Met(O) = CS(=O)CC[C@H](N)C(=O)O

Tests used:
Format in all cases: cell-based
Staphylococcus aureus = experiment: Antimicrobial assay for deletion analogues (Example 10), MIC; settings: Table VII; 3.9×10^5 CFU/ml, 20 hours, LB medium
Description: (§1) For the deletion analogues of the parent peptide further described in Examples 11 and 12, antimicrobial assays were carried out in 96-well tissue culture plates. Each well was incubated with a given microorganism (Escherichia coli, Staphylococcus epidermidis, Pseudomonas aeruginosa, or Staphylococcus aureus) suspended in LB medium. Upon addition of the parent peptide or its deletion analogues (dissolved in 1×PBS<pH7.0), each well contained a final cell density of 1.3×10^5 colony forming units (CFU)/ml of E. coli, or 3.5×10^5 CFU/ml P.aeruginosa, or 3.9×10^5 CFU/ml S. Aureus or 3.0×10^5 CFU/ml S. epidermidis. The final peptide concentrations ranged from 1.5 μg/ml to greater than 100 μg/ml. Addition of peptide to the wells was defined as time zero. At twenty hours, the plates were placed in a Titertek Multiskan apparatus and the O.D. 620 determined. The plates as well as the initial innoculum were incubated at 37° C. Five wells per plate contained medium alone, whereas five others contained medium plus cells. These controls were used to eliminate the possibility of medium contamination, while providing a measure of uninhibited growth of the microorganisms. The degree of peptide activity was determined by comparing the deletion analogues with uninhibited growth of the control cells over a twenty-hour period. The effective growth inhibitation of the deletion analogues is listed in the examples and tables below.

Escherichia coli [1] = experiment: as above; settings: Table VII; 1.3×10^5 CFU/ml, 20 hours, LB medium
Description: as §1

Pseudomonas aeruginosa [2] = experiment: as above; settings: Table VII; 3.5×10^5 CFU/ml, 20 hours, LB medium
Description: as §1

[3] = test system: Staphylococcus epidermidis; experiment: as above; settings: Table VII; 3.0×10^5 CFU/ml, 20 hours, LB medium
Description: as §1

[4] = test system: Staphylococcus epidermidis; experiment: Antimicrobial assay in 96-well plates, LB medium (Example 2), MIC; settings: for Min. Inhibitory Concentration S. epidemidia: Table VI, methionine sulfoxide diastereomer fractions
Escherichia coli [5] = settings: for Min. Inhibitory Concentration E. Coli: LB medium
Description: (§2) For the following Examples 3-9, antimicrobial assays were carried out in 96-well tissue culture plates. Each well was incubated with a given microorganism (Escherichia coli, Staphylococcus epidermidis, or Pseudomonas aeruginosa) suspended in LB medium. Upon the addition of the parent peptide having the structural formula hereinabove described, or its substitution analogues, or of Peptide I (dissolved in 1 X PBS, pH 7.0) each well contained a final cell density of 1.0×10^6 colony forming units (CFU)/ml. The final peptide concentrations ranged from 1.5 μg/ml to greater than 100 μg/ml.
(§3) Addition of peptides to the wells was defined as time zero. At twenty hours, the plates were placed in a Titertek Multiskan apparatus and the O.D.620 determined. The plates as well as the initial innoculum were incubated at 37° C.
(§4) Five wells per plate contained media alone, while five others contained medium plus cells. These controls were used to eliminate the possibility of media contamination while providing a measure of uninhibited growth of the microorganisms.
(§5) The degree of peptide activity was determined by comparing the substitution analogues with uninhibited growth of the control cells over a twenty-hour period.
(§6) as hereinabove described and analogues thereof wherein a methionine sulfoxide residue was substituted for various amino acid residues of the parent peptide were prepared as hereinabove described in Example 1 and tested for minimum inhibitory concentration with respect to E. coli, P. aeruginosa, and S. epidermidis at a concentration given in μg/ml, and for percent hemolysis of human red blood cells as hereinabove described in Example 2. The minimum inhibitory concentration and percent hemolysis (at a concentration of 100 μg/ml) are listed below in Table I. As used herein, the heading "Amino Acid Residue Substituted" refers to the number of the amino acid residue in the peptide which is substituted with a desired amino acid residue. All other residues remain the same as that of the normal peptide sequence. The term "Minimum Inhibitory Concentration" (MIC) as used herein indicates the minimum concentration of peptide in μg/ml needed to achieve 100 percent effective growth inhibition of the organism.

Pseudomonas aeruginosa [6] = settings: for Min. Inhibitory Concentration P. Aeruginosa: LB medium
Description: as §2, §3, §4, §5, §6

[7] = Table VI, methionine sulfoxide diastereomer fractions, 20 hours
[8] = Table IV, analogues substituted at residues 4 and 11, 20 hours
[9] = Table II, lysine substitutions, 20 hours

Substance	Minimum Inhibitory Concentration S. aureus (Staphylococcus aureus) [µg/mL]	Minimum Inhibitory Concentration E. coli (Escherichia coli [1]) [µg/mL]	Minimum Inhibitory Concentration P. Aeruginosa (Pseudomonas aeruginosa [2]) [µg/mL]	Minimum Inhibitory Concentration S. epidermidis [3] [µg/mL]	other results
Ac-LKLLKLLKKLKKLLKKL-NH2 [5 (X(SEQ ID NO: 49) --NH2)]	64 to 128	8	32	2	–
11 (SEQ ID NO: 15) 20/80: residue 11 methionine sulfoxide analogue, fraction by proportion of L-methionine-L-/D-sulfoxide (assignment undetermined) (LKLLKKLLKK[Met(O)]KKLLKKL; also: sulfoxide L-/D- 20/80 mixture, assignment undetermined)	–	–	–	–	Min. Inhibitory Concentration S. epidemidia ([4]; 20 hours): 2.5 µg/mL; Min. Inhibitory Concentration E. Coli (Escherichia coli [5]; [7]): 10 µg/mL; Min. Inhibitory Concentration P. Aeruginosa (Pseudomonas aeruginosa [6]; [7]): 5 µg/mL
Ac-LKLLKKLLKKLKKLKKL-NH2 [14 (X(SEQ ID NO: 54) --NH2)]	32	8	8	2	–
Ac-LLLKKLLKKLKKLLKKL-NH2 [2 (X(SEQ ID NO: 47) --NH2)]	32 to 64	8 to 16	16 to 32	4	–
Ac-LLKLLKKLLKKLKK [Peptide I]	–	–	–	–	Minimum Inhibitory Concentration against E.coli (Escherichia coli [5]; 20 h): 10 µg/mL; Minimum Inhibitory Concentration against P.aeruginosa (Pseudomonas aeruginosa [6]; 20 h): 5 µg/mL
Ac-LKLKKLLKKLKKLLKKL-NH2 [3 (X(SEQ ID NO: 48) --NH2)]	32 to 64	4	8	4	–
7 (SEQ ID NO: 11) 70/30: residue 7 methionine sulfoxide analogue, fraction by proportion of L-methionine-L-/D-sulfoxide (assignment undetermined) (LKLLKK[Met(O)]LKKLKKLLKKL; also: sulfoxide L-/D- 70/30 mixture, assignment undetermined)	–	–	–	–	Min. Inhibitory Concentration S. epidemidia ([4]; 20 hours): > 10 µg/mL; Min. Inhibitory Concentration E. Coli (Escherichia coli [5]; [7]): 10 µg/mL; Min. Inhibitory Concentration P. Aeruginosa (Pseudomonas aeruginosa [6]; [7]): > 5 µg/mL
4 (SEQ ID NO: 8) 60/40: residue 4 methionine sulfoxide analogue, fraction by proportion of L-methionine-L-/D-sulfoxide (assignment undetermined) (LKL[Met(O)]KKLLKKLKKLLKKL; also: sulfoxide L-/D- 60/40 mixture, assignment undetermined)	–	–	–	–	Min. Inhibitory Concentration S. epidemidia ([4]; 20 hours): 5 µg/mL; Min. Inhibitory Concentration E. Coli (Escherichia coli [5]; [7]): > 10 µg/mL; Min. Inhibitory Concentration P. Aeruginosa (Pseudomonas aeruginosa [6]; [7]): 5 µg/mL
7 (SEQ ID NO: 11) 20/80: residue 7 methionine sulfoxide analogue, fraction by proportion of L-methionine-L-/D-sulfoxide (assignment undetermined) (LKLLKK[Met(O)]LKKLKKLLKKL; also: sulfoxide L-/D- 20/80 mixture, assignment undetermined)	–	–	–	–	Min. Inhibitory Concentration S. epidemidia ([4]; 20 hours): > 10 µg/mL; Min. Inhibitory Concentration E. Coli (Escherichia coli [5]; [7]): 5 µg/mL; Min. Inhibitory Concentration P. Aeruginosa (Pseudomonas aeruginosa [6]; [7]): > 5 µg/mL
Ac-LKLLKKLLKKLKLLKKL-NH2 [12 (X(SEQ ID NO: 53) --NH2)]	32	8	8	4	–
4 (SEQ ID NO: 8) 50/50: residue 4 methionine sulfoxide analogue, fraction by proportion of L-methionine-L-/D-sulfoxide (assignment undetermined) (LKL[Met(O)]KKLLKKLKKLLKKL; also: sulfoxide L-/D- 50/50 mixture, assignment undetermined)	–	–	–	–	Min. Inhibitory Concentration S. epidemidia ([4]; 20 hours): 5 µg/mL; Min. Inhibitory Concentration E. Coli (Escherichia coli [5]; [7]): 10 µg/mL; Min. Inhibitory Concentration P. Aeruginosa (Pseudomonas aeruginosa [6]; [7]): 5 µg/mL
Ac-LKLKKKLLKKMKKLLKKL-NH2 [Analogue 8]	–	–	–	–	Min. Inhibitory Concentration S. epidermidis [4, 8]: 5 µg/mL; Min. Inhibitory Concentration E. Coli (Escherichia coli [5]; [8]): 5 µg/mL; Min. Inhibitory Concentration P. Aeruginosa (Pseudomonas aeruginosa [6]; [8]): 5 µg/mL
Ac-LKLLKKLLKLKKLLKKL-NH2 [9 (X(SEQ ID NO: 51) --NH2)]	64	8	16	4	–
Ac-KKLLKKLLKKLKKLLKKL-NH2 [1 (SEQ ID NO: 23)]	–	–	–	–	Min. Inhibitory Concentration S. epidermidis [4, 9]: 25 µg/mL; Min. Inhibitory Concentration E. Coli (Escherichia coli [5]; [9]): 5 µg/mL; Min. Inhibitory Concentration P. Aeruginosa (Pseudomonas aeruginosa [6]; [9]): 30 µg/mL
Ac-LKLKKKLLKKLKKLLKKL-NH2 [4 (SEQ ID NO: 25)]	–	–	–	–	Min. Inhibitory Concentration S. epidermidis [4, 9]: 5 µg/mL; Min. Inhibitory Concentration E. Coli (Escherichia coli [5]; [9]): 2.5 µg/mL; Min. Inhibitory Concentration P. Aeruginosa (Pseudomonas aeruginosa [6]; [9]): 30 µg/mL
Ac-LKLLKKLLKKLKKLLKK-NH2 [18 (X(SEQ ID NO: 56) --NH2)]	32	16	8	2	–
11 (SEQ ID NO: 15) 70/30: residue 11 methionine sulfoxide analogue, fraction by proportion of L-methionine-L-/D-sulfoxide (assignment undetermined) (LKLLKKLLKK[Met(O)]KKLLKKL; also: sulfoxide L-/D- 70/30 mixture, assignment undetermined)	–	–	–	–	Min. Inhibitory Concentration S. epidemidia ([4]; 20 hours): 2 µg/mL; Min. Inhibitory Concentration E. Coli (Escherichia coli [5]; [7]): 10 µg/mL; Min. Inhibitory Concentration P. Aeruginosa (Pseudomonas aeruginosa [6]; [7]): 2.5 µg/mL
Ac-LKLLKKLLKKLKKLLKL-NH2 [16 (X(SEQ ID NO: 55) --NH2)]	32	8	16	4	–
Ac-LKLLKKLLKKKKLLKKL-NH2 [11 (X(SEQ ID NO: 52) --NH2)]	256	64	8	2	–
Ac-KLLKKLLKKLKKLLKKL-NH2 [1 (X(SEQ ID NO: 46) --NH2)]	32	16	16 to 32	4	–
Ac-LKLLKKLKKLKKLLKKL-NH2 [7 (X(SEQ ID NO: 50) --NH2)]	64	4	4 to 8	2	–
Ac-LKKLKKLLKKLKKLLKKL-NH2 [3 (SEQ ID NO: 24)]	–	–	–	–	Min. Inhibitory Concentration S. epidermidis [4, 9]: 10 µg/mL; Min. Inhibitory Concentration E. Coli (Escherichia coli [5]; [9]): 5 µg/mL; Min. Inhibitory Concentration P. Aeruginosa (Pseudomonas aeruginosa [6]; [9]): 30 µg/mL
